Measured values published in PubChem BioAssay (NCI).
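48-hour exposure; five concentrations; linearly interpolated endpoints. TGI: total growth inhibition.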

How the values were obtained:
Assay in all cases: growth of human tumour cells (NCI), 48 h
ACHN renal = tested on: ACHN renal
DLD-1 colon = tested on: DLD-1 colon
DMS 114 small cell lung = tested on: DMS 114 small cell lung
HCT-116 colon = tested on: HCT-116 colon
HOP-62 NSCLC = tested on: HOP-62 NSCLC
KM12 colon = tested on: KM12 colon
LOX IMVI melanoma = tested on: LOX IMVI melanoma
LXFL 529 NSCLC = tested on: LXFL 529 NSCLC
M19-MEL melanoma = tested on: M19-MEL melanoma
NCI-H460 lung = tested on: NCI-H460 lung
SK-MEL-5 melanoma = tested on: SK-MEL-5 melanoma
SNB-78 CNS = tested on: SNB-78 CNS
SW-620 colon = tested on: SW-620 colon
XF 498 CNS = tested on: XF 498 CNS
BT-549 breast = tested on: BT-549 breast
MCF7 breast = tested on: MCF7 breast
NCI/ADR-RES ovarian = tested on: NCI/ADR-RES ovarian
SF-539 CNS = tested on: SF-539 CNS
HOP-18 NSCLC = tested on: HOP-18 NSCLC
MALME-3M melanoma = tested on: MALME-3M melanoma

Structure (SMILES) | TGI (ACHN renal) | TGI (DLD-1 colon) | TGI (DMS 114 small cell lung) | TGI (HCT-116 colon) | TGI (HOP-62 NSCLC) | TGI (KM12 colon) | TGI (LOX IMVI melanoma) | TGI (LXFL 529 NSCLC) | TGI (M19-MEL melanoma) | TGI (NCI-H460 lung) | TGI (SK-MEL-5 melanoma) | TGI (SNB-78 CNS) | TGI (SW-620 colon) | TGI (XF 498 CNS) | TGI (BT-549 breast) | TGI (MCF7 breast) | TGI (NCI/ADR-RES ovarian) | TGI (SF-539 CNS) | TGI (HOP-18 NSCLC) | TGI (MALME-3M melanoma)
CC(=O)c1cccc(NC(=O)C(=O)C(C(=O)c2ccccc2F)C2OC(=O)c3ccccc32)c1 (stereo unspecified) | > 100 µM | > 100 µM | 90 µM | 88.6 µM | > 100 µM | > 100 µM | 62.9 µM | > 100 µM | > 100 µM | > 100 µM | > 100 µM | > 100 µM | > 100 µM | > 100 µM |  |  |  |  |  | 
CCOC(=O)C1=NN(c2ccccc2)C2=CC(C)=NN(C)C(=S)N21 | > 100 µM |  |  | > 100 µM |  | > 100 µM | > 100 µM |  |  | > 100 µM | > 100 µM |  | > 100 µM |  | > 100 µM | > 100 µM | > 100 µM | > 100 µM |  | 
Nc1nc(Cl)cc(NCCCCCCCCCCCCNc2cc(Cl)nc(N)n2)n1 |  | > 100 µM |  | > 100 µM | 35.2 µM | > 100 µM | 14.5 µM | 53 µM | > 100 µM | > 100 µM | 3.72 µM |  | > 100 µM | 26.4 µM |  |  |  | 72.5 µM | > 100 µM | > 100 µM
CC[C@](C)(O)C(=O)O[C@H]1C(=O)O[C@@H]2C[C@H]3C(C)=C[C@H](O)[C@@H](O)[C@]3(C)[C@H]3[C@@]4(O)OC[C@]32[C@@H]1[C@@H](C)[C@H]4O |  | 63.6 µM | 17.6 µM | 89.2 µM | 157 µM | 109 µM | 68.4 µM |  | 45.5 µM | 31.3 µM | 30 µM | 138 µM | 61.7 µM | 66.5 µM |  | 39 µM | > 205 µM | 47.2 µM | 298 µM | 34.1 µM
